Assay results reported in patent publication US20240327415A1, “Multicomponent Complexes, Including Salts, Crystalline Forms, and Hydrates and Solvates of ENT1 Inhibitors” (iTeos Belgium SA, priority 2023, published 2024).
Marks after values point to notes of the source that are not given here.

Columns and labels:
[1] = salt screen, XRPD of damp, dried and 40° C./75% RH stored samples (Salt Preparation Methods 1 and 2); type: physicochemical; design: key to XRPD Analysis Damp/Dry: A = amorphous; Evap. = isolated via evaporation
Protocol: (§1) Salt Preparation Method 1: Approximately 25 mg of Compound 1 (free base) was weighed out into 1.5 mL screw-cap vials and a stirrer bar was added. For solid counterions, the appropriate amount of acid (1.0 or 2.0 equiv.) was weighed into separate 1.5 mL screw-cap vials. 100 μL of the appropriate solvent system was added to both the Compound 1 and the solid counterions. Stock solutions of liquid counterions were prepared, such that 100 μL contained 1.0 or 2.0 equiv. of acid. See counterion and solvent lists in Table 60 and Table 61 respectively.
(§2) The samples were stirred at 40° C. for 5-10 min and then the acid solutions were added to Compound 1, rinsing out the transfer vial with a further 50 μL of solvent. […] Experiments were temperature cycled between 40° C. and 5° C. (1 h hold; 0.1° C./min ramp/cool) for ca. 24-68 h. Anti-solvent addition (ASA) was carried out to slurries at 5° C. then experiments were heated to 30° C. over 1 h. ASA was carried out at 30° C. or 40° C. where clear solutions or gums were observed.
(§3) Temperature cycling was then continued for ca. 16-69 h, followed by further ASA and temperature cycling if required. Material was isolated at 5° C. and analyzed damp by XRPD. All isolated material was dried under vacuum at ca. 40° C. for ca. 17-91 h then re-analyzed by XRPD. The XRPD plate was stored at 40° C./75% RH for 24-48 h and then samples re-analyzed. Solutions were stored uncapped at ambient temperature to evaporate. Any residual solids were analyzed by XRPD.
(§4) Salt Preparation Method 2: The general procedure adopted in preparing the potential salts is outlined below. A known mass of Compound 1 (free base) and a known volume of the appropriate solvent system were added to 20 mL scintillation vials. The required mol. equiv. of the appropriate counterions were added to the vials as solutions or slurries in the corresponding solvent system.
(§5) The experiments were stirred at 40° C. for ca. 1 h, and then temperature cycled between 40° C. and 5° C. with 0.1° C./min ramp and 1 h hold between each step. Anti-solvent additions and subsequent slurrying at 5° C. were employed in order to facilitate crystallization. […] The damp and dried solids were subsampled and analyzed by XRPD. Where applicable, the dried solids were stored at 40° C./75% RH for 24-48 h in order to improve the crystallinity and/or facilitate solid form conversion to the desired form.

[2] = as above; type: physicochemical; design: key: A = amorphous; Evap. = isolated via evaporation
Protocol: as §1, §2, §3, §4, §5

[3] = as above; type: physicochemical; design: key: A = amorphous; PC = poorly crystalline; *= predominantly; 1 = Form 1 Compound 1 benzoate; 2 = Form 2 Compound 1 benzoate; 3 = Form 3 Compound 1 benzoate; conditions: Benzoic acid, 1 equiv.
Protocol: as §1, §2, §3, §4, §5

ENT1 = molecular target: T1, ENT1 (Homo sapiens, UniProt Q99808); experiment: ENT1 activity: intracellular uptake of 5-Ethynyl-Uridine (5EU) in whole blood, CD19 positive cells, flow cytometry; type: cell-based; conditions: 5EU 60 min at 37° C.
T1 construct: endogenous in cells; host or cells: CD19-positive cells (B cells) in whole blood from healthy donors
T1 sequence (Q99808 1-456): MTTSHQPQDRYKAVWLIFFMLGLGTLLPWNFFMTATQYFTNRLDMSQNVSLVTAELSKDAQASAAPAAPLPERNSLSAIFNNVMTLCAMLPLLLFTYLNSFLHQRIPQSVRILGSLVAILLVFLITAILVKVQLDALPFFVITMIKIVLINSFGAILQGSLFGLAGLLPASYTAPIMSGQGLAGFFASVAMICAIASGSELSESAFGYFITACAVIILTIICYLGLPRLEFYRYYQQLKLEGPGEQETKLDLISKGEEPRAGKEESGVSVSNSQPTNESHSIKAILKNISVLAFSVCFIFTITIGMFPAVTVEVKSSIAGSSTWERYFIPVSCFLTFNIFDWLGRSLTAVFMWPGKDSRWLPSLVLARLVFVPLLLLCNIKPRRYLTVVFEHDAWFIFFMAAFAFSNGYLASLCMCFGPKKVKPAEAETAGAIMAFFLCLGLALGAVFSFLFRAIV
Protocol: Example 20-ENT1 Activity of Crystalline Form 2 Compound 1 di(hydrogen sulfate) trihydrate compared to Compound 1 (free base)-Initial and after Six-Month Storage: (1) Initial time: Whole blood from 8 healthy donors was incubated with 5-Ethynyl-Uridine (5EU, CAS #: 69075-42-9, Jena Bioscience) for 60 min at 37° C., in the absence or presence of freshly suspended 1 μM Compound 1 (free base) or 1 μM Form 2 Compound 1 di(hydrogen sulfate) trihydrate. Intracellular uptake of 5EU through ENT1 transporters was assessed by standard flow cytometry and ENT1 activity was determined.
In FIG. 101, the data are expressed as % of ENT1 activity in untreated CD19 cells, arbitrary set at 100%, and are the means±SD of three independent experiments. Statistical analysis was performed using one-way analysis of variance (ANOVA) followed by Tukey's post hoc analysis with Prism 10.1.2 software (GraphPad Software). *: p<0.0001 vs. untreated B cells; ns: non-significant.
(2) Six months: Compound stability was evaluated on suspended solutions of Compound 1 (free base) or Form 2 Compound 1 di(hydrogen sulfate) trihydrate that were stored at −20° C. for 6 months. On the day of the experiment, whole blood from 3 healthy donors was incubated with 5-Ethynyl-Uridine (5EU, CAS #: 69075-42-9, Jena Bioscience) for 60 min at 37° C., in the absence or presence of either 1 μM Compound 1 (free base) or 1 μM Form 2 Compound 1 di(hydrogen sulfate) trihydrate of 6-month-old solutions. Intracellular uptake of 5EU through ENT1 transporters was assessed by standard flow cytometry and ENT1 activity was determined.
In FIG. 102, the data are expressed as % of ENT1 activity in untreated CD19 cells, arbitrary set at 100%, and are the means±SD. Statistical analysis was performed using two-way analysis of variance (ANOVA) with Prism 10.1.2 software (GraphPad Software). *: p<0.05 vs. untreated B cells; **: p<0.01 vs. untreated B cells; ns: non-significant.

[4] = salt screen, XRPD of damp, dried and 40° C./75% RH stored samples (Salt Preparation Methods 1 and 2); type: physicochemical; design: key: A = amorphous; 1 = Form 1 Compound 1 hydrogen chloride; PC = poorly crystalline; conditions: AS Heptane
Protocol: as §1, §2, §3, §4, §5

[5] = as above; type: physicochemical; design: key: A = amorphous; PC = poorly crystalline; 1 = Form 1 Compound 1 hydrogen phosphate; 2 = Form 2 Compound 1 hydrogen phosphate; 3 = Form 3 Compound 1 hydrogen phosphate; 4 = Form 4 Compound 1 hydrogen phosphate; conditions: Phosphoric acid, 1 equiv.
Protocol: as §1, §2, §3, §4, §5

[6] = hydration mapping studies (slurries at different water activities, Example 17); type: physicochemical; design: key to XRPD, hydration studies - dried samples: A: amorphous; Crystalline Form 10 mono(hydrogen sulfate)
Protocol: Example 17—Hydration Mapping Studies-Crystalline Form 2 Compound 1 di(hydrogen sulfate) trihydrate, Crystalline Form 3 Compound 1 di(hydrogen sulfate), and Blend: The effects of different water activities on crystalline Form 2 Compound 1 di(hydrogen sulfate) trihydrate, crystalline Form 3 Compound 1 di(hydrogen sulfate) and a blend of the two were investigated. The “blend” was prepared by mixing crystalline Form 2 Compound 1 di(hydrogen sulfate) trihydrate and crystalline Form 3 Compound 1 di(hydrogen sulfate) in a 1:1 ratio. To the vials containing the required solid material, the appropriate solvent system was added to form slurries. The slurry samples were stirred at the required temperatures during and after the solvent addition. Where dissolution was observed post-solvent addition, additional solid was added to re-saturate the sample. After stirring at the required temperature for 48 hours, the residual solids left in the vials were analyzed by XRPD to assess the solid forms. The analyzed samples were then dried on the XRPD plate under reduced pressure at 40° C. for 24 hr. The dried samples were analyzed by XRPD.

[7] = Benzoic acid, 1 equiv., Ethanol, AS Heptane
[8] = Benzoic acid, 1 equiv., MEK, AS Heptane
[9] = Benzoic acid, 1 equiv., THF, AS Heptane
[10] = Hydrochloric acid, 2 equiv., Acetonitrile, AS tBME
[11] = Hydrochloric acid, 2 equiv., Ethyl acetate, AS Heptane
[12] = Hydrochloric acid, 2 equiv., IPA:H2O (75:25% v/v), AS tBME
[13] = Hydrochloric acid, 2 equiv., MEK, AS Heptane
[14] = Hydrochloric acid, 2 equiv., THF, AS Heptane
[15] = Hydrochloric acid, 2 equiv., Ethanol*
[16] = Phosphoric acid, 1 equiv., Acetonitrile, AS tBME
[17] = Phosphoric acid, 1 equiv., IPA:H2O (75:25% v/v), AS tBME
[18] = Phosphoric acid, 1 equiv., Ethyl acetate

SMILES: O=C(O)c1ccccc1 [Benzoic acid, 1 equiv.]
- XRPD Analysis Damp/Dry ([1]; Benzoic acid, 1 equiv., Acetonitrile, AS BME, (evap.)): A (evap.)
- XRPD Analysis 40° C. 75% RH [1, 7]: 2 + 3
- XRPD Analysis Damp [1, 7]: 2*
- XRPD Analysis 40° C. 75% RH ([1]; Benzoic acid, 1 equiv., IPA:H2O (75:25% v/v), AS tBME): 2 + 3
- XRPD Analysis 40° C. 75% RH [1, 8]: 1 + 3
- XRPD Analysis Damp [1, 8]: 1*
- XRPD Analysis Dry [1, 8]: 1, PC
- XRPD Analysis Damp [1, 9]: 1 + 2
- XRPD Analysis Dry [2, 7]: A
- XRPD Analysis Dry [2, 9]: A
- XRPD Analysis 40° C. 75% RH ([3]; Ethyl acetate, AS Heptane): 1
- XRPD Analysis Damp ([3]; Ethyl acetate, AS Heptane): 1
- XRPD Analysis Dry ([3]; Ethyl acetate, AS Heptane): 1
- XRPD Analysis Damp ([3]; IPA:H2O (75:25% v/v), AS tBME): 2
- XRPD Analysis Dry ([3]; IPA:H2O (75:25% v/v), AS tBME): 2
- XRPD Analysis 40° C. 75% RH ([3]; THF, AS Heptane): 3

SMILES: COc1cc(C(=O)O[C@@H]2CCCOc3cc(cc(OC)c3OC)C(=O)NCCCN3CCCN(CC2)CC3)cc(OC)c1OC [Compound 1, (16R)-9,10-dimethoxy-6-oxo-12-oxa-1,5,19-triazatricyclo[17.3.2.1^7,11]pentacosa-7(25), 8,10-trien-16-yl 3,4,5-trimethoxybenzoate]
- decrease of ENT1 activity compared to untreated CD19 positive cells (ENT1; 1 μM of solutions stored at −20° C. for 6 months, whole blood from 3 healthy donors): No significant effect
- decrease of ENT1 activity compared to untreated CD19 positive cells (ENT1; 1 μM, freshly suspended, whole blood from 8 healthy donors): 49.8%

SMILES: Cl [Hydrochloric acid, 2 equiv.]
- XRPD Analysis 40° C. 75% RH ([1]; Hydrochloric acid, 2 equiv., Ethanol*, AS Heptane): 1 (PC)
- XRPD Analysis 40° C. 75% RH [2, 10]: A
- XRPD Analysis Damp [2, 10]: A
- XRPD Analysis Dry [2, 10]: A
- XRPD Analysis 40° C. 75% RH [2, 11]: A
- XRPD Analysis Damp [2, 11]: A
- XRPD Analysis Dry [2, 11]: A
- XRPD Analysis 40° C. 75% RH [2, 12]: A
- XRPD Analysis Damp [2, 12]: A
- XRPD Analysis Dry [2, 12]: A
- XRPD Analysis 40° C. 75% RH [2, 13]: A
- XRPD Analysis Damp [2, 13]: A
- XRPD Analysis Dry [2, 13]: A
- XRPD Analysis 40° C. 75% RH [2, 14]: A
- XRPD Analysis Damp [2, 14]: A
- XRPD Analysis Dry [2, 14]: A
- XRPD Analysis Damp [4, 15]: 1
- XRPD Analysis Dry [4, 15]: 1

SMILES: O=P(O)(O)O [Phosphoric acid, 1 equiv.]
- XRPD Analysis 40° C. 75% RH ([5]; Acetonitrile, AS tBME): 4
- XRPD Analysis 40° C. 75% RH ([5]; Ethanol, AS Heptane): 1
- XRPD Analysis Damp ([5]; Ethanol, AS Heptane): 1
- XRPD Analysis Dry ([5]; Ethanol, AS Heptane): 1
- XRPD Analysis 40° C. 75% RH ([5]; Ethyl acetate, AS Heptane): 2
- XRPD Analysis 40° C. 75% RH ([5]; MEK, AS Heptane): 2
- XRPD Analysis Damp ([5]; MEK, AS Heptane): 3
- XRPD Analysis Dry ([5]; MEK, AS Heptane): 2
- XRPD Analysis 40° C. 75% RH ([5]; THF, AS Heptane): 1
- XRPD Analysis Damp ([5]; THF, AS Heptane): 1
- XRPD Analysis Dry ([5]; THF, AS Heptane): 1
- XRPD Analysis Damp [2, 16]: A
- XRPD Analysis Dry [2, 16]: A
- XRPD Analysis 40° C. 75% RH [2, 17]: A
- XRPD Analysis Damp [2, 17]: A
- XRPD Analysis Dry [2, 17]: A
- XRPD Analysis Damp [4, 18]: PC
- XRPD Analysis Dry [4, 18]: PC

SMILES: COc1cc(C(=O)O[C@@H]2CCCOc3cc(cc(OC)c3OC)C(=O)NCCCN3CCCN(CC2)CC3)cc(OC)c1OC.O=S(=O)(O)O.O=S(=O)(O)O [blended material]
- XRPD, hydration studies - dried samples ([6]; 50° C., Acetonitrile:Water, aw 0.9, dried 40° C. reduced pressure 24 hr): M10
- solid form by XRPD after slurrying ([6]; acetonitrile:water solvent systems with aw≤0.5, 48 hours): some crystalline Form 3 Compound 1 di(hydrogen sulfate) was retained
- solid form by XRPD after slurrying ([6]; acetonitrile:water systems with aw>0.5, 48 hours): Crystalline Form 2 Compound 1 di(hydrogen sulfate) trihydrate was observed
- solid form by XRPD after slurrying ([6]; all the 2-propanol:water solvent systems, 48 hours): Crystalline Form 2 Compound 1 di(hydrogen sulfate) trihydrate was also observed
